Here are results for one compound from PMC8770593 (Nature Communications, 2022).

Structures are written as SMILES. Several values for one entry are separate records, joined by “and”; a condition that tells them apart may be missing. Identical values can stand only once.

The target in test [1] is α1BARXTAL-ΔD12 (stabilized α1BAR without DARPin D12) (Homo sapiens, UniProt P35368, D191Y/DEL249-283/E194V/F334L/G183V/I116T/P349L/S150Y/S168C/S95C/T295M/V124M/V333L). The test is described as follows: HTRF competition ligand-binding assay on whole transfected HEK293T/17 cells (QAPB tracer). The conditions noted are these: construct α1BARXTAL-∆D12, competition with Cyclazosin against QAPB tracer, one value per experiment date, read-out: Calculated pKi values (converted).
Sequence of α1BARXTAL-ΔD12 (stabilized α1BAR without DARPin D12) (P35368 with tags, fused parts or gaps with the stated changes): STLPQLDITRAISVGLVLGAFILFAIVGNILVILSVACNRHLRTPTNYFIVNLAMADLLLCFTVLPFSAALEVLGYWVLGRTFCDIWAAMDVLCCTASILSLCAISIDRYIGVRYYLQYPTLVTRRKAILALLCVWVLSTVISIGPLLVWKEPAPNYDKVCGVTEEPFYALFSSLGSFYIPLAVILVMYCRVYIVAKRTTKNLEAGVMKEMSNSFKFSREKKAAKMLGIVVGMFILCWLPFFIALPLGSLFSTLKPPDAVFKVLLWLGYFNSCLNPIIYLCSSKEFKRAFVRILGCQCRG

The subject of test [2] is α1BAR expressed in mammalian cells. The note with it: radioligand binding; ref Proudman, R. G. W., et al., Pharmacol. Res. Perspect. 8 (2020); cited from earlier work.
Test [3] has as its target T1, wild-type α2CAR (Homo sapiens, UniProt P18825).
T1 sequence (P18825 37-462 limits assumed): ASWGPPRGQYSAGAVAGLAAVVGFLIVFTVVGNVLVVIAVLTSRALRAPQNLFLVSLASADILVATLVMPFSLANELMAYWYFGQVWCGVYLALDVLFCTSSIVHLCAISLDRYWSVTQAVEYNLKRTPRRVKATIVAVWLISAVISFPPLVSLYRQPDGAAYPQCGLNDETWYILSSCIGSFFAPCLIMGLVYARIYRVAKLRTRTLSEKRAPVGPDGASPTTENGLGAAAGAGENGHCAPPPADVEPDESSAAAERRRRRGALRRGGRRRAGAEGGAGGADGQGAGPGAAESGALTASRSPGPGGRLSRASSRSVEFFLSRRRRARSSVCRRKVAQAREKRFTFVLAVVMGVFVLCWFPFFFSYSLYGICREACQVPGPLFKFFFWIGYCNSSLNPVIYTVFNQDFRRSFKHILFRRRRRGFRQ
The test is described as follows: HTRF ligand-binding assay on whole transfected HEK293T/17 cells (QAPB saturation; competition with QAPB tracer). The conditions noted are these: pKi (competition binding), competition with 50 nM QAPB tracer, whole cells, mean. (In general: Time-resolved FRET reads energy transfer from a long-lived donor to a nearby acceptor.)

On to `COc1cc2nc(N3CCN(C(=O)c4ccco4)[C@H]4CCCC[C@H]43)nc(N)c2cc1OC` (relative stereo) [cyclazosin, [4-(4-amino-6,7-dimethoxyquinazolin-2-yl)-cis-octahydroquinoxalin-1-yl] furan-2-ylmethanone], for which the Ki in test [1] is 9.9 nM and 6.69 nM and 2.8 nM; in test [3], 339 nM. The “affinity as pK value (RLBA)” value in test [2] is recorded as 8.68.
